The values that follow are results of earlier work, collected in US10894026B2, “Pharmaceutical compositions comprising a fumaric acid ester and method for the preparation thereof” (PHARMATHEN S.A., priority 2016, dated 2021).

Structures can show the parent of a compound that is named as a salt.

`COC(=O)/C=C/C(=O)OC` [Dimethyl fumarate, (E)-2-butenedioic acid dimethyl ester]: the solubility in methanol entry (methanol) is “sparingly soluble”. Also, the solubility in water entry (water) is given as “insoluble”.
